Experimental data as given in the supplement of paper PMC10307832.

Columns and labels:
Assay in all cases: relative viability (nuclei count vs DMSO), 5 days (fraction); higher = more cells survive
Fedratinib + Tozasertib = compound: Cc1cnc(Nc2ccc(OCCN3CCCC3)cc2)nc1Nc1cccc(S(=O)(=O)NC(C)(C)C)c1 [Fedratinib] + Cc1cc(Nc2cc(N3CCN(C)CC3)nc(Sc3ccc(NC(=O)C4CC4)cc3)n2)n[nH]1 [Tozasertib] (partner 0.1 µM)
Summary of the method: (§1)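 A single step with final 0.05% Triton X-100, 1% formaldehyde and 1 ug/ml Hoechst fixed the cells and stained nuclei 5 days after treatment. Lung cancer cell lines in 1536-well plates had been treated by pin tool the day after seeding with one drug alone or a fixed anchor-drug dose plus five library-drug doses (not always all listed) in √10 steps, and nuclei were counted on 4× images. Relative viability is the ratio of nuclei in treated wells to nuclei in vehicle wells, taken as the median of duplicate plates.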

Fedratinib + Alpelisib = compound: Cc1cnc(Nc2ccc(OCCN3CCCC3)cc2)nc1Nc1cccc(S(=O)(=O)NC(C)(C)C)c1 [Fedratinib] + Cc1nc(NC(=O)N2CCC[C@H]2C(N)=O)sc1-c1ccnc(C(C)(C)C(F)(F)F)c1 [Alpelisib] (partner 2 µM)
Summary of the method: as §1

Fedratinib + Vorinostat = compound: Cc1cnc(Nc2ccc(OCCN3CCCC3)cc2)nc1Nc1cccc(S(=O)(=O)NC(C)(C)C)c1 [Fedratinib] + O=C(CCCCCCC(=O)Nc1ccccc1)NO [Vorinostat] (partner 1 µM)
Summary of the method: as §1

GW-2580 + Phenformin = compound: COC1=CC=C(C=C1)COC2=C(C=C(C=C2)CC3=CN=C(N=C3N)N)OC [GW-2580] + N=C(N)NC(=N)NCCc1ccccc1 [Phenformin] (partner 250 µM)
Summary of the method: as §1

Fedratinib + Pictilisib = compound: Cc1cnc(Nc2ccc(OCCN3CCCC3)cc2)nc1Nc1cccc(S(=O)(=O)NC(C)(C)C)c1 [Fedratinib] + CS(=O)(=O)N1CCN(Cc2cc3nc(-c4cccc5[nH]ncc45)nc(N4CCOCC4)c3s2)CC1 [Pictilisib] (partner 1 µM)
Summary of the method: as §1

Fedratinib + Palbociclib = compound: Cc1cnc(Nc2ccc(OCCN3CCCC3)cc2)nc1Nc1cccc(S(=O)(=O)NC(C)(C)C)c1 [Fedratinib] + CC(=O)c1c(C)c2cnc(Nc3ccc(N4CCNCC4)cn3)nc2n(C2CCCC2)c1=O [Palbociclib] (partner 0.5 µM)
Summary of the method: as §1

Row | Cell Line | relative viability (Fedratinib + Tozasertib; first compound 0.1 µM) | relative viability (Fedratinib + Tozasertib; first compound 0.3162 µM) | relative viability (Fedratinib + Tozasertib; first compound 1 µM) | relative viability (Fedratinib + Alpelisib; first compound 0.1 µM) | relative viability (Fedratinib + Alpelisib; first compound 0.3162 µM) | relative viability (Fedratinib + Alpelisib; first compound 1 µM) | relative viability (Fedratinib + Vorinostat; first compound 0.1 µM) | relative viability (Fedratinib + Vorinostat; first compound 0.3162 µM) | relative viability (Fedratinib + Vorinostat; first compound 1 µM) | relative viability (GW-2580 + Phenformin; first compound 0.08 µM) | relative viability (GW-2580 + Phenformin; first compound 0.8 µM) | relative viability (GW-2580 + Phenformin; first compound 2.53 µM) | relative viability (GW-2580 + Phenformin; first compound 8 µM) | relative viability (Fedratinib + Pictilisib; first compound 0.1 µM) | relative viability (Fedratinib + Pictilisib; first compound 0.3162 µM) | relative viability (Fedratinib + Pictilisib; first compound 1 µM) | relative viability (Fedratinib + Palbociclib; first compound 0.1 µM) | relative viability (Fedratinib + Palbociclib; first compound 0.3162 µM) | relative viability (Fedratinib + Palbociclib; first compound 1 µM)
1 | NCI-H2085 | 0.478 | 0.827 | 0.764 | 0.977 | 0.963 | 0.922 | 0.77 | 0.825 | 0.787 | 0.756 | 0.739 | 0.682 | 0.769 | 0.361 | 0.442 | 0.375 | 0.447 | 0.483 | 0.423
2 | NCI-H2087 | 0.205 | 0.206 | 0.179 | 1.03 | 1.05 | 0.963 | 0.728 | 0.734 | 0.825 | 0.526 | 0.473 | 0.352 | 0.444 | 0.705 | 1 | 0.27 | 0.23 | 0.24 | 0.258
3 | NCI-H2126 | 0.429 | 0.818 | 0.781 | 0.745 | 0.719 | 0.786 | 0.732 | 0.786 | 0.708 | 0.52 | 0.535 | 0.543 | 0.526 | 0.489 | 0.514 | 0.391 | 0.319 | 0.339 | 0.369
4 | NCI-H2170 | 0.481 | 0.743 | 0.599 | 0.835 | 0.809 | 0.654 | 0.886 | 0.776 | 0.654 | 0.442 | 0.345 | 0.37 | 0.336 | 0.266 | 0.329 | 0.221 | 0.379 | 0.363 | 0.344
5 | NCI-H2228 | 0.188 | 0.221 | 0.227 | 0.59 | 0.842 | 0.747 | 0.744 | 0.589 | 0.545 | 0.395 | 0.371 | 0.358 | 0.318 | 0.363 | 0.432 | 0.127 | 0.648 | 0.53 | 0.523
6 | NCI-H2347 | 0.368 | 0.602 | 0.483 | 1.04 | 1.04 | 1 | 0.533 | 0.494 | 0.587 | 0.423 | 0.482 | 0.241 | 0.47 | 0.584 | 0.513 | 0.561 | 0.37 | 0.426 | 0.391
7 | NCI-H2405 | 0.418 | 0.705 | 0.612 | 0.626 | 0.824 | 0.698 | 0.946 | 0.982 | 0.814 | 0.401 | 0.393 | 0.308 | 0.333 | 0.338 | 0.443 | 0.34 | 0.486 | 0.536 | 0.463
8 | NCI-H3122 | 0.259 | 0.362 | 0.299 | 0.833 | 0.682 | 0.7 | 1.07 | 1 | 0.988 | 0.41 | 0.366 | 0.339 | 0.341 | 0.621 | 0.551 | 0.152 | 0.199 | 0.184 | 0.159
9 | PC-3 [JPC-3] | 0.833 | 0.894 | 0.864 | 0.985 | 1.01 | 1.09 | 0.719 | 0.978 | 0.676 | 0.472 | 0.489 | 0.489 | 0.464 | 0.694 | 0.836 | 0.56 | 0.481 | 0.523 | 0.542
10 | PC-14 | 0.436 | 0.59 | 0.583 | 0.915 | 0.961 | 0.916 | 0.761 | 0.83 | 0.727 | 0.358 | 0.82 | 0.494 | 0.615 | 0.465 | 0.606 | 0.438 | 0.592 | 0.58 | 0.402
11 | RERF-LC-KJ | 0.292 | 0.38 | 0.347 | 0.792 | 0.86 | 0.756 | 0.66 | 0.669 | 0.573 | 0.435 | 0.418 | 0.445 | 0.395 | 0.431 | 0.545 | 0.462 | 1.01 | 1.05 | 1.02
12 | SK-LU-1 | 0.27 | 0.298 | 0.261 |  | 0.93 | 0.701 | 0.766 | 0.786 | 0.614 | 0.559 | 0.731 | 0.383 | 0.537 | 0.514 | 0.489 | 0.285 | 0.393 | 0.317 | 0.34
13 | SK-MES-1 | 0.375 | 0.857 | 0.737 | 0.909 | 0.829 | 0.809 | 1.08 | 1.09 | 0.976 | 0.748 | 0.608 | 0.515 | 0.528 | 0.314 | 0.38 | 0.283 | 0.339 | 0.32 | 0.271
14 | SW 1573 | 0.148 | 0.21 | 0.14 | 0.813 | 0.867 | 0.703 | 0.744 | 0.701 | 0.413 | 0.334 | 0.383 | 0.401 | 0.4 | 0.444 | 0.391 | 0.463 | 0.41 | 0.373 | 0.302
15 | UMC-11 | 0.229 | 0.228 | 0.193 | 0.985 | 0.876 | 0.95 | 0.377 | 0.357 | 0.241 | 0.349 | 0.311 | 0.388 | 0.343 | 0.672 | 0.82 | 0.397 | 0.345 | 0.311 | 0.301
